Source: PubChem BioAssay AID2060890 (Molecular Pharmacology Branch, DTP, NCI, 2025)

Tested on: LG0703-F948-PDC complex spheroid viability
Experiment: Anticancer human tumor LG0703-F948-PDC patient-derived lung adenocarcinoma cell line growth inhibition [RAS]
Settings: for IC50: curve of first compound; for viability, T/C: stronger effect = lower value
Description: RAS pathway inhibitors in Combinations in Complex Spheroids
A high-throughput screen of multi-cell type tumor spheroids was designed to identify active combinations of RAS pathway inhibitors and targeted small molecules. Complex spheroids include a stromal component modeled by human endothelial cells (HUVEC) and fibroblasts modeled by human mesenchymal stem cells (MSCs). The concentration ranges selected for each drug and investigational agent were based upon clinically achievable concentrations if the clinical Cmax of the agent was known.
Compounds. The drugs and investigational agents: abemaciclib (NSC768073), cobimetinib (NSC768068), divarasib (GDC6063, NSC841802), docetaxel (NSC628503), GDC-1971 (RLY-1971, NSC841576), gemcitabine (NSC613327), inavolisib (NSC800729), ipatasertib (NSC767898), KB-0742 (NSC834161), MRTX-1133 (NSC836407), osimertinib (NSC779217), RMC-4630 (NSC839698), RMC-6236 (NSC851965), RMC-6291 (NSC852671), Ro-3306 (NSC812927), sapanisertib (NSC764658), SN-38 (NSC673596), staurosporine (NSC755774), SY5609 (NSC837396), and tovorafenib (DAY101, NSC766906), were obtained from the National Cancer Institute (NCI) Developmental Therapeutics Program Chemical Repository. The FDA-approved anticancer drug set is available from the NCI Developmental Therapeutics Program. […] The stock solutions were prepared in dimethyl sulfoxide (DMSO, Sigma-Aldrich, St. Louis, MO, cat. D2650) at 800-fold the tested concentration and stored at -70 degrees C prior to their use. All drugs and investigational agents were tested over a range starting from a high concentration at or near the clinical Cmax and decreasing in half-log increments. If the clinical Cmax for an agent had not been determined, the highest concentration tested was 10 microM.
Cell Culture. All cells were maintained in an incubator at 37 degrees C and 5% CO2 with 95% humidity. The PDC lines were cultured according to standard operating procedures established by the NCI PDMR. All PDCs were thawed and cultured in Matrigel-coated flasks prepared with a working solution of 1X Ham's F-12 nutrient mix, without supplementation (Invitrogen, Waltham, MA, cat. 11765054), 100 U/mL penicillin-streptomycin (Invitrogen, cat. 15140122), and 2.5% Matrigel (Corning Inc., Corning, NY, cat. 354248) for the first three passages. The 362531-283-R-J2-PDC and 782815-120-R-J1-PDC lines were cultured in 6C/Colon 1B media, which includes advanced DMEM/F-12 (Thermo Fisher Scientific, cat. 12634028), 10 mM HEPES (Thermo Fisher Scientific, cat. 15630080), 1X GlutaMAX supplement (Thermo Fisher Scientific, cat. 35050061), 0.1 mg/mL primocin (InvivoGen, San Diego, CA, cat. ant-pm-2), 10% defined fetal bovine serum, heat inactivated (HyClone Laboratories Inc., Logan, UT, cat. SH30070.03HI), 50% L-WRN conditioned media (ATCC, cat. CRL-3276), 1.25 mM N-Acetyl-L-cysteine (Sigma-Aldrich, cat. A9165), 10 mM nicotinamide (Sigma-Aldrich, cat. N0636), 1X B-27 supplement (Thermo Fisher Scientific, cat. 17504044), 1X N-2 supplement (Thermo Fisher Scientific, cat. 17502048), 50 ng/mL human EGF (Thermo Fisher Scientific, cat. PHG0311), and 10 microM Y-27632 dihydrochloride (Tocris Bioscience, cat. 1254). The K12877-001-R-J1-PDC line was cultured in 6I media, which includes all 6C/Colon 1B media plus 10 ng/mL human FGF-10 (PeproTech, cat. 100-26), 1 ng/mL human FGF-2 (PeproTech, cat. 100-18B), 1 µM prostaglandin E2 (Tocris Bioscience, cat. 2296), […] hydrocortisone (Sigma-Aldrich, cat. H4001), and […] bovine insulin (Sigma-Aldrich, cat. I6634). The K86415-001-R-J1-PDC line was cultured in 6D media, which includes all 6C/Colon 1B media components minus the L-WRN conditioned media. The 485176-168-R4-J1-PDC was cultured in PANC media, which includes all 6C/Colon 1B media plus 100 ng/mL human FGF-10 (PeproTech, cat. 100-26), 500 nM SB-431542 (Selleckchem, cat. S1067), and 10 nM gastrin (Tocris Bioscience, cat. 3006). […]

[1] = second compound 0.0316 µM, first compound 0.00316 µM
[2] = second compound 0.0316 µM, first compound 0.01 µM
[3] = second compound 0.0316 µM, first compound 0.0316 µM
[4] = second compound 0.0316 µM, first compound 0.1 µM
[5] = second compound 0.0316 µM, first compound 0.316 µM
[6] = second compound 0.0316 µM, first compound 1 µM
[7] = second compound 0.1 µM, first compound 0.00316 µM
[8] = second compound 0.1 µM, first compound 0.01 µM
[9] = second compound 0.1 µM, first compound 0.0316 µM
[10] = second compound 0.1 µM, first compound 0.1 µM
[11] = second compound 0.1 µM, first compound 0.316 µM
[12] = second compound 0.1 µM, first compound 1 µM
[13] = second compound 0.316 µM, first compound 0.00316 µM
[14] = second compound 0.316 µM, first compound 0.01 µM
[15] = second compound 0.316 µM, first compound 0.0316 µM
[16] = second compound 0.316 µM, first compound 0.1 µM
[17] = second compound 0.316 µM, first compound 0.316 µM
[18] = second compound 0.316 µM, first compound 1 µM
[19] = second compound 1 µM, first compound 0.00316 µM
[20] = second compound 1 µM, first compound 0.01 µM
[21] = second compound 1 µM, first compound 0.0316 µM
[22] = second compound 1 µM, first compound 0.1 µM
[23] = second compound 1 µM, first compound 0.316 µM
[24] = second compound 1 µM, first compound 1 µM
[25] = second compound 3.16 µM, first compound 0.00316 µM
[26] = second compound 3.16 µM, first compound 0.01 µM
[27] = second compound 3.16 µM, first compound 0.0316 µM
[28] = second compound 3.16 µM, first compound 0.1 µM
[29] = second compound 3.16 µM, first compound 0.316 µM
[30] = second compound 3.16 µM, first compound 1 µM
[31] = second compound 10 µM, first compound 0.00316 µM
[32] = second compound 10 µM, first compound 0.01 µM
[33] = second compound 10 µM, first compound 0.0316 µM
[34] = second compound 10 µM, first compound 0.1 µM
[35] = second compound 10 µM, first compound 0.316 µM
[36] = second compound 10 µM, first compound 1 µM
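For viability, T/C in this document: 100% = DMSO vehicle wells.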

SMILES: C=CC(=O)Nc1cc(Nc2nccc(-c3cn(C)c4ccccc34)n2)c(OC)cc1N(C)CCN(C)C + C#Cc1c(F)ccc2cc(O)cc(-c3ncc4c(N5CC6CCC(C5)N6)nc(OCC56CCCN5CC(F)C6)nc4c3F)c12
- IC50 (second compound 0.0316 µM): 11 nM
- IC50 (second compound 0.1 µM): 9.22 nM
- IC50 (second compound 0.316 µM): 6.02 nM
- IC50 (second compound 1 µM): 4.22 nM
- IC50 (second compound 3.16 µM): < 3.16 nM
- IC50 (second compound 10 µM): < 3.16 nM
- viability, T/C [1]: 96.5%
- viability, T/C [2]: 53%
- viability, T/C [3]: 17.6%
- viability, T/C [4]: 12.5%
- viability, T/C [5]: 11.1%
- viability, T/C [6]: 8.76%
- viability, T/C [7]: 84.3%
- viability, T/C [8]: 47.4%
- viability, T/C [9]: 15.8%
- viability, T/C [10]: 14%
- viability, T/C [11]: 13.8%
- viability, T/C [12]: 8.56%
- viability, T/C [13]: 69.2%
- viability, T/C [14]: 34.9%
- viability, T/C [15]: 15.6%
- viability, T/C [16]: 11.2%
- viability, T/C [17]: 10.1%
- viability, T/C [18]: 8.31%
- viability, T/C [19]: 56.2%
- viability, T/C [20]: 31.5%
- viability, T/C [21]: 14.2%
- viability, T/C [22]: 10.2%
- viability, T/C [23]: 9.15%
- viability, T/C [24]: 7.05%
- viability, T/C [25]: 48.8%
- viability, T/C [26]: 25%
- viability, T/C [27]: 10.1%
- viability, T/C [28]: 11.4%
- viability, T/C [29]: 8.78%
- viability, T/C [30]: 6.8%
- viability, T/C [31]: 33.5%
- viability, T/C [32]: 10.2%
- viability, T/C [33]: 10.5%
- viability, T/C [34]: 7.37%
- viability, T/C [35]: 6.33%
- viability, T/C [36]: 4.43%

SMILES: CC(Nc1ccc2c(c1)OCCn1cc(N3C(=O)OCC3C(F)F)nc1-2)C(N)=O (stereo unspecified) + C#Cc1c(F)ccc2cc(O)cc(-c3ncc4c(N5CC6CCC(C5)N6)nc(OCC56CCCN5CC(F)C6)nc4c3F)c12
- IC50 (second compound 0.0316 µM): 1610 nM
- IC50 (second compound 0.1 µM): 1520 nM
- IC50 (second compound 0.316 µM): 903 nM
- IC50 (second compound 1 µM): 381 nM
- IC50 (second compound 3.16 µM): 62 nM
- IC50 (second compound 10 µM): < 31.6 nM
- viability, T/C [3]: 96%
- viability, T/C [4]: 88.5%
- viability, T/C [5]: 76.3%
- viability, T/C [6]: 56.4%
- viability, T/C (second compound 0.0316 µM, first compound 3.16 µM): 39.9%
- viability, T/C (second compound 0.0316 µM, first compound 10 µM): 21.6%
- viability, T/C [9]: 80.7%
- viability, T/C [10]: 81%
- viability, T/C [11]: 66.5%
- viability, T/C [12]: 56.3%
- viability, T/C (second compound 0.1 µM, first compound 3.16 µM): 39.7%
- viability, T/C (second compound 0.1 µM, first compound 10 µM): 19.5%
- viability, T/C [15]: 78.1%
- viability, T/C [16]: 71%
- viability, T/C [17]: 59.9%
- viability, T/C [18]: 50.8%
- viability, T/C (second compound 0.316 µM, first compound 3.16 µM): 32%
- viability, T/C (second compound 0.316 µM, first compound 10 µM): 12.5%
- viability, T/C [21]: 77.7%
- viability, T/C [22]: 71.2%
- viability, T/C [23]: 52.7%
- viability, T/C [24]: 32.2%
- viability, T/C (second compound 1 µM, first compound 3.16 µM): 17.6%
- viability, T/C (second compound 1 µM, first compound 10 µM): 9.15%
- viability, T/C [27]: 54.1%
- viability, T/C [28]: 47.5%
- viability, T/C [29]: 34%
- viability, T/C [30]: 18.7%
- viability, T/C (second compound 3.16 µM, first compound 3.16 µM): 12.7%
- viability, T/C (second compound 3.16 µM, first compound 10 µM): 4.54%
- viability, T/C [33]: 48.1%
- viability, T/C [34]: 31%
- viability, T/C [35]: 15.2%
- viability, T/C [36]: 7.38%
- viability, T/C (second compound 10 µM, first compound 3.16 µM): 4.96%
- viability, T/C (second compound 10 µM, first compound 10 µM): 2.4%

SMILES: O=C(c1ccc(F)c(F)c1Nc1ccc(I)cc1F)N1CC(O)([C@@H]2CCCCN2)C1 + C#Cc1c(F)ccc2cc(O)cc(-c3ncc4c(N5CC6CCC(C5)N6)nc(OCC56CCCN5CC(F)C6)nc4c3F)c12
- IC50 (second compound 0.0316 µM): 68.4 nM
- IC50 (second compound 0.1 µM): 62.1 nM
- IC50 (second compound 0.316 µM): 32.2 nM
- IC50 (second compound 1 µM): 32.8 nM
- IC50 (second compound 3.16 µM): 7.71 nM
- IC50 (second compound 10 µM): < 3.16 nM
- viability, T/C [1]: 103%
- viability, T/C [2]: 75.2%
- viability, T/C [3]: 60.5%
- viability, T/C [4]: 45.4%
- viability, T/C [5]: 35.6%
- viability, T/C [6]: 24.1%
- viability, T/C [7]: 91.8%
- viability, T/C [8]: 70.2%
- viability, T/C [9]: 64%
- viability, T/C [10]: 39.4%
- viability, T/C [11]: 34.2%
- viability, T/C [12]: 21.9%
- viability, T/C [13]: 80.5%
- viability, T/C [14]: 66.1%
- viability, T/C [15]: 53.1%
- viability, T/C [16]: 31.6%
- viability, T/C [17]: 28.2%
- viability, T/C [18]: 22.3%
- viability, T/C [19]: 66%
- viability, T/C [20]: 54.8%
- viability, T/C [21]: 51.5%
- viability, T/C [22]: 24.4%
- viability, T/C [23]: 25.1%
- viability, T/C [24]: 19.7%
- viability, T/C [25]: 56.8%
- viability, T/C [26]: 47.9%
- viability, T/C [27]: 33.8%
- viability, T/C [28]: 21.4%
- viability, T/C [29]: 22.6%
- viability, T/C [30]: 16.3%
- viability, T/C [31]: 43.9%
- viability, T/C [32]: 38.3%
- viability, T/C [33]: 18.1%
- viability, T/C [34]: 17.3%
- viability, T/C [35]: 6.81%
- viability, T/C [36]: 2.29%
